We go through six compounds from patent publication US5137897A, “2-substituted 4-(3-alkyl-5-tert.-butyl-4-hydroxyphenyl) thiazoles, processes for their preparation, pharmaceuticals containing them and their use” (Hoechst Aktiengesllschaft, priority 1989, dated 1992).

For test [1], the system named is Adjuvant arthritis (paw volume increase) in rats. Description: Adjuvant arthritis (method of Pearson), antiinflammatory action on the 5th day. The format is in vivo, rat (male, Wistar-Lewis strain). Conditions: Rattus norvegicus, 120 h; for ED50: adjuvant arthritis, oral, determined graphically from dose-response curve; for inhibition in vivo at 50 mg/kg: po, 50 mg/kg p.o. once daily, 1st to 5th day, vs untreated control, read-out: Adjuvant arthritis (% inhibition at 50 mg/kg orally). Here is the method:
The testing of the compounds of the formula I according to the invention for antiinflammatory action, influence on immunopathological processes, oxygen free radicaldeactivating properties and influence on arachidonic acid metabolism was carried out in the animal models and bioassays described in the following.
1. Adjuvant arthritis for influencing the antiinflammatory action (Table 2)
(§1) The investigations were carried out by the method of Pearson (Arthrit. Rheum. 1959, 2, 44). Male rats of a Wistar-Lewis strain having a body weight between 130 and 200 g were used as experimental animals. The compounds to be tested were administered orally (p. o.) once daily from the 1st to the 5th experimental day in doses of 50 mg per kg of body weight. The animals of one control group received only the vehicle. Each preparation group and the control group comprised 8 animals. The percentage reduction of the paw volume increase compared to that of the untreated control group was used as the criterion of action. The ED50 values were determined graphically from the dose-response curve.
(§2) 4-(3,5-Di-tert.-butyl-4-hydroxyphenyl)-2-methylthiazole i.e. the compound of the formula [drawing 26] according to US-A-4,535,165 mentioned at the beginning, was additionally included in this and the investigation below as a comparison preparation.

The nature of test [2]: Free radical scavenger properties (reaction with DPPH). The conditions noted are these: reaction with DPPH at 20° C.; determined graphically. On the procedure:
a) Free radical scavenger properties The testing in this test, which allows conclusions on the antioxidative potential of a substance, was carried out according to Smith et al., Biochem, Pharmacol. 1987. 36, 1456. In this test, the reaction of the compounds according to the invention with the stable free radical 1,1-diphenyl-2-picrylhydrazyl (DPPH) is monitored optically at 20° C. The rate constant K and reaction orders n in Table 5 were determined graphically in the customary manner.

Test [3] concerns TXB2 formation in mast cell cultures. Description: Influence on formation of TXB2 in mast cell cultures (rat). The format is cell-based. The conditions noted are these: read-out: TXB2, Residual activity (%). Here is the method:
(§3) Moreover, the substances according to the invention were also characterized in cellular leukocyte systems in vitro as inhibitors of arachidonic acid metabolites. To detect the lipoxygenase metabolites, human neutrophils stimlated by calcium ionophore A 23 187 (70 mcmol/1) were incubated with ^14 C-arachidonic acid (81 mcmol/1) and the principal metabolites formed after 15 minutes at 37° C., such as 5-hydroxyeicosatetraenoic acid (5-HETE) and the more strongly proinflammatory leukotriene B4 (LTB4) were determined quantitatively (Tab. 6) with the aid of a radio monitor after separation by HPLC. The influence on the proinflammatory arachiconic acid metabolites thromboxane and LTB4 in cultures prepared from rat mast cells was determined in a corresponding manner (Tab. 7).

Test [4] relates to LTB4 formation in mast cell cultures. Description: Influence on formation of LTB4 in mast cell cultures (rat). Format: cell-based. Conditions: read-out: LTB4, Residual activity (%). On the procedure: as §3
Test [5] has as its system Adjuvant arthritis (Perper modification; paw volume) in rats. Description: Adjuvant arthritis (Perper modification), paw volume on the 21st day. Format: in vivo, rat (male, Wistar-Lewis strain). Conditions: Rattus norvegicus, po, 504 h, 1st to 12th day; for inhibition in vivo at 2.5 mg/kg: 2.5 mg/kg/day; for inhibition in vivo at 5 mg/kg: 5 mg/kg/day.
A further test addresses T1, cyclooxygenase (Ovis aries, UniProt P05979).
T1 construct: microsomal cyclooxygenase system (fraction from sheep seminal vesicles, Paesel, Frankfurt, Germany); purchased Paesel, Frankfurt, Germany; host or cells: sheep seminal vesicles (microsomal fraction)
T1 sequence (P05979 25-600): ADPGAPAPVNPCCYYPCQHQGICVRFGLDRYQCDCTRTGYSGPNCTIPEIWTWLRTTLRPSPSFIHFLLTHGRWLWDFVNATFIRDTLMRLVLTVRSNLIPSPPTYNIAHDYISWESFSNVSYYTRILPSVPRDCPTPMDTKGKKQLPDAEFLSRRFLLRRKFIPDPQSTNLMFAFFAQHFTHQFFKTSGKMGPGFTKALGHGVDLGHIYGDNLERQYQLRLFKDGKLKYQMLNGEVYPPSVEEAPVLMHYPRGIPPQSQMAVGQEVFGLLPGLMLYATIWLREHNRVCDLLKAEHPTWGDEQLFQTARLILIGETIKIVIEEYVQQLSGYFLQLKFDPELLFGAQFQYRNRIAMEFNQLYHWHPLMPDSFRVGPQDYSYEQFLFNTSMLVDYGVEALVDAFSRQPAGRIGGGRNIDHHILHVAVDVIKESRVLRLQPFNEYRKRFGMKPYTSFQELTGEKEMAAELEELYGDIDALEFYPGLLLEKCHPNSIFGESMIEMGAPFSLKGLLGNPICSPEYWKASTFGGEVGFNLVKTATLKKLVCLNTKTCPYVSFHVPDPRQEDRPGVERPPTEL
The experiment in a line: Cyclooxygenase (microsomes) inhibition in vitro. Format: biochemical, sheep. On the procedure:
(§4) The inhibitory action of the compounds according to the invention is measured on the in vitro arachidonic acid degradation catalyzed by cyclooxycenase and lipoxycenase with the aid of the test systems described in Weithmann and Alpermann, Arzneim.-Forsch. 1985, 35, 947: The cyclooxygenase-catalyzed synthesis of prostaglandins from arachidonic acid is measured in the microsomal cyclooxygenase system (fraction from sheep seminal vesicles, Paesel, Frankfurt, Germany). The coenzyme is adrenaline, whose conversion to adrenochrome is monitored by spectrophotometry at 492 nm. Cis-9-cis-12-linoleic acid is incubated with lipoxygenase (L7127, Sigma, Deisenhofen, Germany) in the lipoxygenase system in vitro and the formation of conjugated double bonds taking place during the oxygenation reaction is monitored optically at 234 nm.
The inhibitor actions, or the inhibitor concentrations necessary for a 50 % inhibition of enzyme activity (IC50 values), have been determined for the following examples according to the invention:
Cyclooxygenase (microsomes)

The test system of test [6] is LTB4 formation in human neutrophils. Description: Influence on LTB4 formation in human neutrophils. The format is cell-based. The conditions noted are these: Neutrophil. On the procedure:
as §3

The test system of test [7] is 5-HETE formation in human neutrophils. Description: Influence on 5-HETE formation in human neutrophils. The conditions noted are these: Neutrophil. The format is cell-based. On the procedure:
as §3

The test system of test [8] is Arthus reaction (paw volume increase) in rats. The experiment in a line: Reverse passive Arthus reaction. The format is in vivo, rat (male Sprague-Dawley). On the procedure:
b) Reverse passive Arthus reaction
Male Sprague-Dawley rats having a body weight between 100 and 120 g. which had been divided into groups of 8 animals in each case, were used as experimental animals. The animals received a subplantar injection in the left hind paw of 0.5 mg of immunoglobulin in 0.1 ml of a sodium chloride solution 1 hour after oral administration of the test substance. After 4 hours, the Arthus reaction was measured, the percentage change in the paw volume increase compared to that of the control group treated only with vehicle being used as a measuring parameter for the action.

The target in a further test is T2, lipoxygenase (Glycine max, UniProt P08170).
T2 construct: purchased Sigma, Deisenhofen, Germany L7127
T2 sequence (P08170 1-839): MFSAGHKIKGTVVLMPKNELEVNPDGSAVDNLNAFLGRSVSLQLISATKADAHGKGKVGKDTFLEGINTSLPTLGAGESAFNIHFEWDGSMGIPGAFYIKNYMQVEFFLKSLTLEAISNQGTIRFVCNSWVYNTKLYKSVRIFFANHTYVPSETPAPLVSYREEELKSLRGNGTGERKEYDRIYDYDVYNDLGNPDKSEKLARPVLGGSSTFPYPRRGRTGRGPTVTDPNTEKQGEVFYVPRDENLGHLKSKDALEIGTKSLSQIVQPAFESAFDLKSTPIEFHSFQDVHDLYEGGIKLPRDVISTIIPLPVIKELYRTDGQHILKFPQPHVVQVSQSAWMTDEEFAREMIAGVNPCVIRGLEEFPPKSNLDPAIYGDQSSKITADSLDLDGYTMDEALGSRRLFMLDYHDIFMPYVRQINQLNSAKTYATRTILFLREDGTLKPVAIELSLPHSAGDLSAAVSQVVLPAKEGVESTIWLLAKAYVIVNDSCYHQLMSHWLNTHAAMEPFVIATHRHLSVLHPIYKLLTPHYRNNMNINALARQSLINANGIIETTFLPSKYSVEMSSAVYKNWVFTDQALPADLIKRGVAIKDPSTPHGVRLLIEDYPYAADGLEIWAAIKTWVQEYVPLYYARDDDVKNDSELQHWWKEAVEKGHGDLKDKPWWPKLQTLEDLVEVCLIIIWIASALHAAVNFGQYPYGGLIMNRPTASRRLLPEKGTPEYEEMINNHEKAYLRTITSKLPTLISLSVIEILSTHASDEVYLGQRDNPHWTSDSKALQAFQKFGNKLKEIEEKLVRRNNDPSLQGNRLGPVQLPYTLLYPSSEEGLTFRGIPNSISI
The experiment in a line: Lipoxygenase (enzyme) inhibition in vitro. Format: biochemical. On the procedure:
as §4
The inhibitor actions, or the inhibitor concentrations necessary for a 50 % inhibition of enzyme activity (IC50 values), have been determined for the following examples according to the invention: […]

The subject of test [9] is Adjuvant arthritis (Perper modification; paw volume) in rats. The experiment in a line: Adjuvant arthritis (Perper modification), paw volume on the 21st day. Conditions: Rattus norvegicus, po, 504 h, 50 mg/kg/day, 1st to 12th day. Format: in vivo, rat (male, Wistar-Lewis strain). Here is the method: as §1, §2
a) Adjuvant arthritis (Perper modification)
The animals were only treated from the 1st to the 12th experimental day in the experimental arrangement described in item 1. After a treatment-free interval of 9 days, determination of the paw volume of the left and right hind paw was carried out on the 21st day (compare Table 3).

[10] abbreviates: read-out: % inhibition on the 21st day, Left paw.
Where [11] appears, read: read-out: % inhibition on the 21st day, Right paw.

Where two headings read alike, the source gives them in different places.

`CC(C)(C)c1cc(-c2csc(CCC(=O)O)n2)cc(C(C)(C)C)c1O` [Example 3, 3-[4-(3,5-Di-tert.-butyl-4-hydroxyphenyl)thiazol-2-yl]propionic acid]: the ED50 in [1] was 0.9 mg/kg. In addition, in [1], the inhibition in vivo at 50 mg/kg was 84%. This compound also returned a reaction order n in test [2] below 1. The activity at 1 µM in test [3] (1 μM) stood at 113 ± 49%; in test [4] (1 μM), 94 ± 12%. In addition, the activity at 10 µM in [3] (10 μM) was 94 ± 17%; in test [4] (10 μM), 102 ± 9%. The results for the activity at 100 µM in test [3] (100 μM) and in [4] (100 μM) were 28 ± 10% and 78 ± 14%, respectively. The figures for the inhibition in vivo at 2.5 mg/kg in test [5] (setting [10]) and in test [5] (setting [11]) were 65% and 59%, respectively. Moreover, the figures for the inhibition in vivo at 5 mg/kg in test [5] (setting [10]) and in [5] (setting [11]) were 41% and 74%, respectively.

On to `CC(C)(C)c1cc(-c2csc(CCC(=O)NO)n2)cc(C(C)(C)C)c1O` [Example 7, 3-[4-(3 .-butyl-4-hydroxyphenyl)thiazol-2-yl]propionylhydroxamic acid], for which the ED50 in test [1] was 2.4 mg/kg. For the same compound, the inhibition in vivo at 50 mg/kg in [1] was 83%. This compound returned a reaction order n in [2] of 1. On cyclooxygenase, this compound yielded an inhibition at 100 µM of 75%. For the same compound, the activity at 0.1 µM was determined as 91 ± 13.2% in test [6] (0.1 μM, n = 6, read-out: LTB4 formation, Residual activity (%)) and 89.2 ± 12.1% in test [7] (0.1 μM, n = 6, read-out: 5-HETE formation, Residual activity (%)). Moreover, the activity at 1 µM in [6] (1 μM, n = 6, read-out: LTB4 formation, Residual activity (%)) was found to be 74.3 ± 21.5%; in [7] (1 μM, n = 6, read-out: 5-HETE formation, Residual activity (%)) it was 87 ± 15.6%. In addition, the activity at 10 µM in test [6] (10 μM, n = 6, read-out: LTB4 formation, Residual activity (%)) was 35 ± 17%; in [7] (10 μM, n = 6, read-out: 5-HETE formation, Residual activity (%)), 39 ± 12.8%. In addition, the activity at 100 µM in test [6] (100 μM, n = 9, read-out: LTB4 formation, Residual activity (%)) is 1.7 ± 1.3%; in test [7] (100 μM, n = 9, read-out: 5-HETE formation, Residual activity (%)), 1.7 ± 0.4%.

On to `CCOC(=O)Cc1nc(-c2cc(C(C)(C)C)c(O)c(C(C)(C)C)c2)cs1` [Example 8], for which the “% inhibition (Arthus reaction)” value in test [8] (60 mg/kg orally) turned out to be 38%. Besides, the reaction order n in test [2] is reported as 1. The same compound yielded an IC50 at lipoxygenase (Lipoxygenase (enzyme)) of 50 µM. Moreover, the inhibition at 100 µM on cyclooxygenase came to 75%.

In the case of `COC(=O)C=Cc1nc(-c2cc(C(C)(C)C)c(O)c(C(C)(C)C)c2)cs1` [Example 12], the reaction order n in [2] was found to be 1. Moreover, 50 µM produced 73% inhibition at lipoxygenase (at 50 μM).

`Cc1sc(CCC(=O)O)nc1-c1cc(C(C)(C)C)c(O)c(C(C)(C)C)c1` [Example 15]: the ED50 in test [1] worked out at 2.6 mg/kg. In addition, the values for the inhibition in vivo at 50 mg/kg in [1], in test [9] (setting [10]) and in test [9] (setting [11]) were 67%, 39% and 50%, respectively. In addition, the “% inhibition (Arthus reaction)” value in [8] (100 mg/kg orally) was 47%. For the same compound, in [2], the reaction order n is recorded as below 1. On lipoxygenase (at 100 μM), this compound showed an inhibition at 100 µM of 78%.

For `CCOC(=O)CCc1nc(-c2cc(C)c(O)c(C(C)(C)C)c2)cs1` [Example 16], the reaction order n in [2] is below 1. Besides, 34 µM corresponded to half-maximal inhibition on cyclooxygenase (IC50).
